This passage reports IC50 results from patent publication US20110190272A1, “CHEMICAL COMPOUNDS” (ASTRAZENECA AB, priority 2008, published 2011).

pIC50: −log10 of the molar value.

For the first experiment, the target named is T1, CSF-1R (Homo sapiens, UniProt P07333).
T1 construct: The His-tagged kinase domain of CSF-1R (i.e., amino acids 568-912, GeneBank ID NM_005211); His; made in house; host or cells: baculovirus infected SF+Express insect cells
T1 sequence (P07333 568-912): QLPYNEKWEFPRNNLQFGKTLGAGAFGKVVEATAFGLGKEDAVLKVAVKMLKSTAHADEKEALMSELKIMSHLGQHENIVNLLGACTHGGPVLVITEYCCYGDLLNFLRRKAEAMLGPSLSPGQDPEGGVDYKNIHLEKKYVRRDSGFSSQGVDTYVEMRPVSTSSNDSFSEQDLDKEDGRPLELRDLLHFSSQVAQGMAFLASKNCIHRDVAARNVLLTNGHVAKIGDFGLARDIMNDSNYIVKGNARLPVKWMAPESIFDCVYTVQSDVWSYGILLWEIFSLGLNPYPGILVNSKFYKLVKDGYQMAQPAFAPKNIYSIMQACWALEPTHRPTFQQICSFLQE
The experiment is described as follows: Assay 2: CSF1R In-Vitro AlphaScreen Assay. The format is biochemical. To be noted: purified His-tagged kinase domain of CSF-1R, 12 mM ATP in mix. As for the experimental part: Assay 2: CSF1R In-Vitro AlphaScreen Assay
Activity of purified CSF-1R was determined in-vitro using an Amplified Luminescent Proximity Homogeneous Assay (ALPHA) (Perkin Elmer, Mass.), which measures phosphorylation of CSF-1R substrate, biotinylated […] peptide (pEY-HTRF CisBio 61GT0BLD), as described below. The His-tagged kinase domain of CSF-1R (i.e., amino acids 568-912, GeneBank ID NM_005211) was purified from baculovirus infected SF+Express insect cells (1.4×10^6 cells/ml), French pressed and chromatographed through subsequent QIAgen Ni-NTA, Superflow Mono Q HR 10/10, and Superdex 200 SEC columns.
The phosphorylation of the CSF-1R substrate in the presence and absence of the compound of interest was determined. Briefly, 5 ul of Enzyme/Substrate/adenosine triphosphate (ATP) mix consisting of 0.46 nM of purified CSF-1R, 12 nM pEY substrate, and 12 mM ATP in 1.2× buffer was preincubated with 2 ul of compound for 20 minutes at 25° C. Reactions were initiated with 5 ul of Metal mix consisting of 24 mM MgCl2 in 1.2× buffer and incubated at 25° C. for 90 minutes and reactions were stopped by addition of 5 ul of Detection mix consisting of 20 mM HEPES, 102 mM ethylenediamine tetraacetic acid, 1.65 mg/ml BSA, 136 mM NaCl, 40 ug/ml Streptavidin donor beads (Perkin Elmer, Mass., Catalog #6760002), and 40 ug/ml phosphotyrosine-specific antibody coated acceptor beads (Perkin Elmer, Mass., Catalog #6760620). Plates were incubated at 25° C. for 18 hours in the dark. Phosphorylated substrate was detected by an EnVision plate reader (Perkin Elmer) 680 nm excitation, 520-620 nm emission. Data was graphed and IC50s calculated using Excel Fit (Microsoft).
(In general: Bead proximity is the source of the signal in Alpha formats.)
The compound `COc1cc2nnc(C(N)=O)c(Nc3ccc(C)cc3F)c2cc1N1CCN(C[C@@H](O)CO)CC1` [Example 68, 6-{4-[(2R)-2,3-Dihydroxypropyl]piperazin-1-yl}-4-[(2-fluoro-4-methylphenyl)amino]-7-methoxycinnoline-3-carboxamide] had a pIC50 of 8.22.

In the case of `COc1cc2nnc(C(N)=O)c(Nc3ccc(C)cc3F)c2cc1N1CCN(C(=O)C(C)(C)O)CC1` [Example 69, 4-[(2-Fluoro-4-methylphenyl)amino]-6-[4-(2-hydroxy-2-methylpropanoyl)piperazin-1-yl]-7-methoxycinnoline-3-carboxamide], the pIC50 is 7.64.

Regarding `COc1cc2nnc(C(N)=O)c(Nc3ccc(C)cc3F)c2cc1N1CCN(C[C@H](O)CO)CC1` [Example 67, 6-{4-[(25)-2,3-Dihydroxypropyl]piperazin-1-yl}-4-[(2-fluoro-4-methylphenyl)amino]-7-methoxycinnoline-3-carboxamide], the pIC50 was 8.30.

Take `Cc1ccc(Nc2c(C(N)=O)nnc3cc(N4CCN(CCO)CC4)ccc23)c(F)c1` [Example 57, 4-[(2-Fluoro-4-methylphenyl)amino]-7-[4-(2-hydroxyethyl)piperazin-1-yl]cinnoline-3-carboxamide]: the pIC50 was 8.10. This pIC50 lies 0.20 log units lower than the previous one.

Take `Cc1ccc(Nc2c(C(N)=O)nnc3cc(N4CCN(S(C)(=O)=O)CC4)ccc23)c(F)c1` [Example 56, 4-[(2-Fluoro-4-methylphenyl)amino]-7-[4-(methylsulfonyl)piperazin-1-yl]cinnoline-3-carboxamide]: the pIC50 was 7.96. The pIC50 values of the last two compounds are within 0.2 log units of each other.

Consider `COc1cc2nnc(C(N)=O)c(Nc3ccc(C)cc3F)c2cc1N1CCN(C(CO)CO)CC1` [Example 66, 4-[(2-Fluoro-4-methylphenyl)amino]-6-{4-[2-hydroxy-1-(hydroxymethyl)ethyl]piperazin-1-yl}-7-methoxycinnoline-3-carboxamide], for which the pIC50 was 8.40.

`COc1cc2nnc(C(N)=O)c(Nc3ccc(C)cc3F)c2cc1N1CCN(CCS(C)(=O)=O)CC1` [Example 65, 4-[(2-Fluoro-4-methylphenyl)amino]-7-methoxy-6-{4-[2-(methylsulfonyl)ethyl]piperazin-1-yl}cinnoline-3-carboxamide]: the pIC50 was 8.22. The pIC50 values of the last two compounds are within 0.2 log units of each other.

`COc1cc2nnc(C(N)=O)c(Nc3ccc(C)cc3F)c2cc1N1CC[C@H](N(C)C)C1` [Example 41, 6-[(3S)-3-(Dimethylamino)pyrrolidin-1-yl]-4-[(2-fluoro-4-methylphenyl)amino]-7-methoxycinnoline-3-carboxamide] had a pIC50 of more than 8.52.

`COc1cc2nnc(C(N)=O)c(Nc3ccc(C)cc3F)c2cc1N1C[C@@H](C)N(C(C)=O)[C@@H](C)C1` [Example 72, 6-[(3R,55)-4-Acetyl-3,5-dimethylpiperazin-1-yl]-4-[(2-fluoro-4-methylphenyl)amino]-7-methoxycinnoline-3-carboxamide] gave a pIC50 of 7.28.

`COc1cc2nnc(C(N)=O)c(Nc3ccc(C)cc3F)c2cc1CN1CCOCC1` [Example 73, 4-[(2-Fluoro-4-methylphenyl)amino]-7-methoxy-6-(morpholin-4-ylmethyl)cinnoline-3-carboxamide] had a pIC50 of 7.28.

Compound `COc1cc2nnc(C(N)=O)c(Nc3ccc(C)cc3F)c2cc1C1CCN(CC(F)F)CC1` [Example 71, 6-[1-(2,2-Difluoroethyl)piperidin-4-yl]-4-[(2-fluoro-4-methylphenyl)amino]-7-methoxycinnoline-3-carboxamide] showed a pIC50 of 7.41. This pIC50 and that of the compound before are within 0.2 log units of each other.

Compound `COCCOC1CCN(c2cc3c(Nc4ccc(C)cc4F)c(C(N)=O)nnc3cc2OC)CC1` [Example 60, 4-[(2-Fluoro-4-methylphenyl)amino]-7-methoxy-6-[4-(2-methoxyethoxy)piperidin-1-yl]cinnoline-3-carboxamide] had a pIC50 of 7.41.

With `COc1cc2nnc(C(N)=O)c(Nc3ccc(C)cc3F)c2cc1N1C[C@@H](C)N(CCO)[C@@H](C)C1` [Example 63, 4-[(2-Fluoro-4-methylphenyl)amino]-6-[(3R,5S)-4-(2-hydroxyethyl)-3,5-dimethylpiperazin-1-yl]-7-methoxycinnoline-3-carboxamide], the pIC50 was 7.92.

Compound `Cc1ccc(Nc2c(C(N)=O)nnc3cc(N4CCN(C)CC4)ccc23)c(F)c1` [Example 55, 4-[(2-Fluoro-4-methylphenyl)amino]-7-(4-methylpiperazin-1-yl)cinnoline-3-carboxamide] showed a pIC50 of 8.52.

`COc1cc2nnc(C(N)=O)c(Nc3ccc(C)cc3F)c2cc1C1CCN(C(=O)[C@H](C)O)CC1` [Example 70, 4-[(2-Fluoro-4-methylphenyl)amino]-6-{1-[(2S)-2-hydroxypropanoyl]piperidin-4-yl}-7-methoxycinnoline-3-carboxamide]: the pIC50 is 7.62.

The next experiment has as its target T1, CSF-1R. As to the kind of experiment: Assay 1: CSF-1R In Vitro AlphaScreen Assay. It is filed as biochemical. The following applies: purified His-tagged kinase domain of CSF-1R, 90 μM ATP. Here is the method:
The phosphorylation of the CSF-1R substrate in the presence and absence of the compound of interest was determined. […] Plates were incubated at 25° C. for 18 hours in the dark. Phosphorylated substrate was detected by an EnVision plate reader (Perkin Elmer) 680 nm excitation, 520-620 nm emission. Data was graphed and IC50s calculated using Excel Fit (Microsoft).
`COc1cc2nnc(C(N)=O)c(Nc3cccc(Cl)c3F)c2cc1OC` [Example 3, 4-[(3-Chloro-2-fluorophenyl)amino]-6,7-dimethoxycinnoline-3-carboxamide] gave a pIC50 of more than 8.52.

By pIC50 is commonly meant the negative decadic logarithm of the IC50, by convention in mol/L.
